The subject of the series is men with abdominal obesity, low to low-normal serum total testosterone levels and the metabolic syndrome. The series is described as follows: Placebo-controlled treatment study in abdominally obese men with low to low-normal testosterone and the metabolic syndrome. Particulars: for increasing insulin sensitivity, treatment group relative to placebo / lowering triglycerides, treatment group relative to placebo / reducing visceral adipose tissue, treatment group relative to placebo: end of treatment. The protocol: (§1) Approximately 200 men are recruited with abdominal obesity (waist circumference >102 cm), low to low-normal serum total testosterone levels (<450 ng/dL), and the metabolic syndrome per NCEP criteria. NCEP criteria for diagnosis of the metabolic syndrome in men includes 3 of the following 5 components: Fasting glucose≧110 mg/dL, TG≧150 mg/dL, low HDL-C (<40 mg/dL), high waist circumference (>102 cm), BP≧130/≧85 mmHg. Since the study design calls for inclusion of abdominally obese men with waist circumference >102 cm, patients have at least 2 of the other 4 criteria to satisfy the NCEP criteria for the metabolic syndrome. Patients are randomized to placebo or treatment. Fasting blood samples are taken.
Periodic measurements of insulin/glycemic response to oral glucose tolerance test (OGTT) and insulin sensitivity index, fasting plasma glucose (FPG), fasting lipid profile (includes triglycerides, total cholesterol, low-density lipoprotein cholesterol, non-high-density lipoprotein cholesterol, high-density lipoprotein cholesterol, and free fatty acids), visceral fat mass, and blood pressure are taken.
as §1, with “taken. After a placebo run in, the treatment group receives daily administration of 0.5 mg N-(2,5-bis-trifluoromethyl-phenyl)-3-oxo-4-aza-4-methyl-5α-androst-1-ene-17β-carboxamide (dutasteride).” for “taken.”
as §1, with “glucose ≧110” for “glucose≧110”, “taken. After a placebo run in, the treatment group receives daily administration of N-(2-trifluoromethyl-phenyl)-3-oxo-4-aza-4-methyl-5α-androst-1-ene-17β-carboxamide.” for “taken.”
as §1, with “(≦450” for “(<450”, “glucose ≧110” for “glucose≧110”

Setting [1] is: Example 6: daily administration (dose not given).

Structures are written as SMILES.

Take `Cc1ccc(O[C@H]2C[C@H]3[C@@H]4[C@@H](C)C[C@H]5NC(=O)C=C[C@]5(C)[C@H]4CC[C@]3(C)C2)cc1` [3-oxo-4-aza-7β-methyl-16β-(4-methylphenoxy)-5α-androst-1-ene]: where the note is “Example 7: 25 mg daily”, the “tolerability of the treatment” value is recorded as “well tolerated”; the “increasing insulin sensitivity, treatment group relative to placebo” value was “significant improvement”; the “lowering triglycerides, treatment group relative to placebo” value is given as “significant improvement”; the “reducing visceral adipose tissue, treatment group relative to placebo” value is “significant improvement”.

As for `CN1C(=O)C=C[C@]2(C)[C@H]3CC[C@]4(C)[C@@H](C(=O)Nc5ccccc5C(F)(F)F)CC[C@H]4[C@@H]3CC[C@@H]12` [N-(2-trifluoromethyl-phenyl)-3-oxo-4-aza-4-methyl-5α-androst-1-ene-17β-carboxamide], under setting [1], the “tolerability of the treatment” value was “well tolerated”; the “increasing insulin sensitivity, treatment group relative to placebo” value is “significant improvement”; the “lowering triglycerides, treatment group relative to placebo” value is given as “significant improvement”; the “reducing visceral adipose tissue, treatment group relative to placebo” value was “significant improvement”.

These data come from patent US20110015164A1, “METHOD OF TREATING MEN WITH METABOLIC AND ANTH[…]” (priority 2004, published 2011).
